Test results as given in publication PMC10808130, “Mobilization of cholesterol induces the transition from quiescence to growth in Caenorhabditis elegans through steroid hormone and mTOR signaling” (Communications Biology, 2024).

What was measured:
SCL-12 [1] = target: T1, SCL-12 (Caenorhabditis elegans, UniProt Q9N5N3); conditions: 20 mM Tris pH 7.5, 30 mM NaCl, 0.05% Triton X-100, room temperature; 0-100 nM ligand; labelled compound
T1 sequence (Q9N5N3 17-208): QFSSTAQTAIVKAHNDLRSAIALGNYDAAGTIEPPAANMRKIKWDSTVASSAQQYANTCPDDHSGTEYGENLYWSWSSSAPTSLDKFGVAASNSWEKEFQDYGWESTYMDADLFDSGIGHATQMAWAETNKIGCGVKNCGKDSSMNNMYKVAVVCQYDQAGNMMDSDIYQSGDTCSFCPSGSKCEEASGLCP

SCL-12 [2] = target: T1, SCL-12; test: competition with TopFluor cholesterol fluorescence, protein captured on Q-Sepharose beads; format: binding; parameters: C-terminal polyhistidine tag; expressed in Sf9 insect cells (baculovirus); conditions: 20 mM Tris pH 7.5, 30 mM NaCl, 0.05% Triton X-100, room temperature; pre-incubated with 50 or 100 nM cholesterol; competitive

Structure (SMILES)	direct fluorescence binding, protein captured on Q-Sepharose beads (SCL-12 [1])	competition with TopFluor cholesterol fluorescence, protein captured on Q-Sephar (SCL-12 [2])
CC1=CC(C)=[N+]2C1=C(CC[C@@H](C)[C@H]1CC[C@H]3[C@@H]4CC=C5C[C@@H](O)CC[C@]5(C)[C@H]4CC[C@]13C)c1c(C)cc(C)n1[B-]2(F)F [TopFluor cholesterol]	Binding of TopFluor cholesterol to SCL-12 is concentration-dependent	
CC(C)CCC[C@@H](C)[C@H]1CC[C@H]2[C@@H]3CC=C4C[C@@H](O)CC[C@]4(C)[C@H]3CC[C@]12C [cholesterol]		SCL-12 was pre-incubated with unmodified cholesterol, which decreased the binding of TopFluor cholesterol significantly
